Assay results taken from paper PMC6916019, “In vitro anti-malarial efficacy of chalcones: cytotoxicity profile, mechanism of action and their effect on erythrocytes” (Malaria Journal, 2019).
In brackets after ≈: the same amount, converted by molar mass. Structures can show the parent of a compound that is named as a salt. Where two headings read alike, the source gives them in different places.

Tests used:
[1] = system: haemozoin (β-haematin) production in P. falciparum cultures; assay: Haemozoin inhibition assay in P. falciparum cultures; format: cell-based, Plasmodium falciparum; settings: drug near IC50 concentration, 48 h, untreated control 547.61 ± 9.52
Protocol: Briefly, the test cultures were centrifuged for 5–10 min at 1300 rpm to dispose of the culture medium. Infected erythrocyte pellet (mingled of β-haematin and erythrocyte membrane) were exposed to 0.01% saponin lysis for 10 min at 25 °C to lyse erythrocyte to release parasites. […] The haemozoin content was quantified by taking the absorbance at 400 nm and using a standard curve prepared from β-haematin. The amount of haemozoin formed in relation to control was calculated. All assays were performed in triplicate.

HeLa cell line [2] = system: HeLa cell line
Protocol: (§5) Cytotoxicity of the compounds on mammalian cells were accomplished employing HeLa cell line (NCCS, Pune) cultured in DMEM supplemented with 10% FBS by the MTT (3-(4,5-dimethylthiazol-2-yl)-2,5-diphenyltetrazolium bromide) microenzymatic method with certain modifications [32]. Briefly, cells (10^4 cells/200 μL/well) were seeded into 96-well flat-bottom sterile tissue culture plates in complete medium. After 24 h of seeding, the test compounds at different dilutions were added and kept for another 24 h in a humidified chamber with 5% CO2 at 37 °C. Twenty microlitres of MTT (5.00 mg/mL in 1XPBS) stock solution were pipetted into each well, mixed and incubated for at least 3–4 h. After incubation, the plates were centrifuged at 1500 rpm for 5 min. The supernatant was disposed cautiously and 100 μL of DMSO were added to each well to lyse the cell and dissolve the insoluble purple formazan product into a coloured solution. Absorbance was taken at 570 nm to determine formazan formation as a measurement of cell viability. Experiments were performed in triplicate.

[3] = system: P. falciparum chloroquine sensitive strain (MRC-2); assay: microbe, parasite or virus in culture; settings: for % Schizont maturation inhibition ± SD (MRC-2): Conc. = 6.25 μg/mL; for Selective index (SI) P.falciparum chloroquine^s (MRC-2): SI = CC50 (HeLa)/IC50 (MRC-2); for P. falciparum Chloroquine^s Strain (MRC-2) IC50 / P. falciparum Chloroquine^s Strain (MRC-2) IC90: schizont maturation, ring stage
Protocol: (§1) These strains were perpetuated in vitro in continuous culture according to the method of Trager and Jensen with slight modifications. Briefly, both sensitive and resistant strains of P. falciparum were maintained in A+ erythrocytes in RPMI-1640 medium (having glutamine, but without any sodium bicarbonate) comprising 1.00 g of dextrose, 5.94 g of HEPES buffer, 40.00 mg of gentamycin. Additionally supplemented with 5% sodium bicarbonate and 10% (v/v) inactivated human AB+ serum then incubated in gas mixture of 5% CO2, 5% O2 and 90% N2 at 37 °C. Parasitized erythrocytes at initial 5% haematocrit were suspended in above mentioned culture medium and parasitaemia was regularly checked to maintain level between 2 and 4% with further sub-culturing for parasitaemia beyond 5%. Growth and multiplication of parasite was monitored by microscopy using Giemsa-stained slides.
(§2) To obtain ring stages of the parasite, the cultures were synchronized using D-sorbitol. The cultures, with majority of ring stages, were treated with equal volume of aqueous 5% D-sorbitol for 5 min and then after centrifugation pellet were suspended in complete medium and fresh erythrocytes synchronized culture with 1% parasitaemia and 5% haematocrit were used for compound concentration response assay.
(§3) The concentration of each test compound needed to hinder multiplication of parasites by 50% (IC50) against P. falciparum strains were obtained through concentration response assay performed in 96-well sterile tissue culture plates. Synchronized parasite cultures were applied to different doses of each compound. Dilutions were performed in gentamycin-free culture medium, and incubated at 37 °C having gaseous mixture (5% CO2, 5% O2 and 90% N2) supply for 24 h. The results were expressed as IC50 values computed from HN-NonLin Regression analysis, as well as mean percentage inhibition ± standard error examined by thick smear Giemsa stained slides. %ParasiteInhibition29,30=100-TotalnumberofSchizontsintestwells/TotalnumberofSchizontsincontrolwell∗100
(§4) Parasite at ring stage was used for compound concentration response assay with parasitaemia of 1% at 5% haematocrit. […] The IC50 and IC90 values of all compounds were determined and the resistance index between the two sensitive and resistant strains was calculated (Table 2). […] The percentage inhibition in schizont maturation was also calculated after incubation of ring stage P. falciparum till 24 h at the same range of drug concentrations (Table 3).

[4] = system: P. falciparum chloroquine resistant strain (RKL-9); assay: WHO Mark III schizont maturation inhibition assay, chloroquine resistant strain; format: cell-based, Plasmodium falciparum; settings: for Selective index (SI) P.falciparum chloroquine^R (RKL-9): SI = CC50 (HeLa)/IC50 (RKL-9); for Resistance Index (RI) IC50 (RKL-9)/IC50 (MRC-2): ratio of IC50 resistant / sensitive strain; for IC50: read-out: P. falciparum Chloroquine^R Strain (RKL-9) IC50; for IC90: read-out: P. falciparum Chloroquine^R Strain (RKL-9) IC90
Protocol: as §1, §2, §3, §4

[5] = Haemolysis assay on normal erythrocytes
Protocol: (§6) Briefly, fresh erythrocytes were centrifuged for 5 min at 1600 rpm for at least thrice in PBS and then the remaining pellet was re-suspended in PBS at 2% hematocrit. One hundred microlitres of this suspended pellet was added to 96-well sterile culture plate having test compounds at different desired concentrations. PBS alone (for baseline values) and 0.4% Triton X-100 in PBS (for 100% haemolysis) were employed as controls. After keeping at 37 °C for 3 h, the test samples were centrifuged and the supernatant was used for determination of the haemolytic activity quantified in terms of haemoglobin release as monitored spectrophotometrically by taking absorbance at 415 nm [33]. The experiment was done in triplicate and the mean ± SD was calculated [33, 34]. %Haemolysis=[Absorbanceofsample415nm-Absorbanceofblanksample415nm/Absorbanceofpositivecontrol415nm]∗100

[6] = MTT cytotoxicity / cell viability assay; settings: human
Protocol: as §5

normal erythrocytes = assay: Haemolysis assay on normal erythrocytes; settings: Conc. = 12.5 μg/mL, 3 h, 37 °C
Protocol: as §6

HeLa cell line [7] = assay: MTT cytotoxicity / cell viability assay; settings: MTT, 24 h, not in table head
Protocol: as §5

Plasmodium = settings: comparison value, reference not given; cited from earlier work
[8] = schizont maturation, 24 h, ring stage
[9] = Plasmodium falciparum, artemisinin, unit ng/mL
[10] = Plasmodium falciparum, schizont maturation, 24 h, ring stage

Protocol for in vitro: as §6

SMILES	Amount of haemozoin production [1] [ng/mL]	HeLa Cell CC50 (HeLa cell line [2]) [µg/mL]	% Schizont maturation inhibition ± SD (MRC-2) ([3]; 24 h) [%]	Selective index (SI) P.falciparum chloroquine^s (MRC-2) [3]	P. falciparum Chloroquine^s Strain (MRC-2) IC50 ([3]; 24 h) [µg/mL]	P. falciparum Chloroquine^s Strain (MRC-2) IC90 ([3]; 24 h) [µg/mL]	% Schizont maturation inhibition ± SD (RKL-9) ([4]; Conc. = 6.25 μg/mL, 24 h) [%]	Selective index (SI) P.falciparum chloroquine^R (RKL-9) [4]	Resistance Index (RI) IC50 (RKL-9)/IC50 (MRC-2) [4]	P. falciparum Chloroquine^R Strain (RKL-9) IC50 [4, 8] [µg/mL]	P. falciparum Chloroquine^R Strain (RKL-9) IC90 [4, 8] [µg/mL]	further results
COc1ccc(/C=C/C(=O)c2cc(OC)c(OC)c(OC)c2)cc1 [Chalcone 6]	457.14 ± 38.09	1.66	51.05 ± 42.42	4.74	0.35	5.23	43.85 ± 33.23	8.74	0.54	0.19	0.98	
CCN(CC)CCCC(C)Nc1ccnc2cc(Cl)ccc12 (stereo not drawn) [CHL, chloroquine, reference compound]	359.52 ± 2.38											hemolysis at 3 h, 12.5 μg/mL [5]: 0.86 ± 0.001%; Amount of haemozoin production ([1]; listed as chloroquine): 359.52 ± 2.38 ng/mL; viability at 24 h, 12.5 µg/mL [6]: 58 ± 0.06%; inhibition at 6.25 µg/mL ([3]; Plasmodium falciparum, 24 h, read-out: % Schizont maturation inhibition ± SD (MRC-2)): 88.39 ± 0.71%; IC50 ([3]; Plasmodium falciparum, 24 h, read-out: P. falciparum Chloroquine^s Strain (MRC-2) IC50): 0.17 µg/mL (≈ 0.531 µM); IC90 ([3]; Plasmodium falciparum, 24 h, read-out: P. falciparum Chloroquine^s Strain (MRC-2) IC90): 1.14 µg/mL (≈ 3.56 µM)
O=C(/C=C/c1cc2ccccc2[nH]1)c1ccc(Cl)cc1 [Chalcone 9]			50.32 ± 33.23	6.60	0.25	0.96	48.87 ± 25.46	7.85	0.84	0.21	0.95	% Hemolysis ± SD (normal erythrocytes): 1.30 ± 0.009%; HeLa Cell CC50 (HeLa cell line [7]): 1.65 µg/mL
COc1ccc(C=CC(=O)c2cc(OC)ccc2OC)cc1 [Chalcone 2]	464.28 ± 11.9	1.06	71.76 ± 10.61	8.15	0.13	0.51	58.02 ± 21.21	7.57	1.08	0.14	0.36	
C=CC(C)(C)c1cc(/C=C/C(=O)c2ccc(O)cc2)c(OC)cc1O [licochalcone]												IC50 of licochalcone (Plasmodium): 1.43 µg/mL
C[C@@H]1CC[C@H]2[C@@H](C)C(=O)O[C@@H]3O[C@@]4(C)CC[C@@H]1[C@]32OO4 [ART, artemisinin, reference compound]								327.4				CC50 at 24 h ([6]; HeLa cells): 0.0491 µg/mL (≈ 0.174 µM); viability at 24 h, 12.5 ng/mL ([6]; HeLa cells): 58.92 ± 0.06%; IC50 [4, 9]: 0.15 ng/mL (≈ 0.000531 µM); IC90 [4, 9]: 0.15 ng/mL (≈ 0.000531 µM); inhibition at 0.00625 µg/mL ([4]; Plasmodium falciparum, artemisinin, Conc. = 6.25 ng/mL, 24 h, read-out: % Schizont maturation inhibition ± SD (RKL-9)): 87.9 ± 2.12%; hemolysis at 3 h, 12.5 ng/mL (in vitro): 1.94 ± 0.026%
C=C[C@H]1C[N@@]2CC[C@H]1C[C@H]2[C@H](O)c1ccnc2ccc(OC)cc12 [QNN, quinine hydrochloride, reference compound]								121.24				CC50 at 24 h ([6]; HeLa cells): 30.3 µg/mL; viability at 24 h, 12.5 µg/mL ([6]; HeLa cells): 62.62 ± 0.06%; IC50 [4, 10]: 250 ng/mL; IC90 [4, 10]: 1590 ng/mL; inhibition at 6.25 µg/mL ([4]; Plasmodium falciparum, Conc. = 6.25 μg/mL, 24 h, read-out: % Schizont maturation inhibition ± SD (RKL-9)): 71.9 ± 16.3%; hemolysis at 3 h, 12.5 μg/mL (in vitro): 2.16 ± 0.035%
COc1ccc(/C=C/C(=O)c2cc(OC)c(OC)c(OC)c2)cc1OC [Chalcone 7]	385.71 ± 4.76		94.24 ± 2.21	139.18	0.11	0.46	85.82 ± 6.36	85.05	1.64	0.18	0.67	
O=C(/C=C/c1cc2ccccc2[nH]1)c1ccc(I)cc1 [Chalcone 10]		1.88	64.44 ± 9.90	9.40	0.20	0.89	49.62 ± 19.79	9.90	0.95	0.19	0.81	
